In patent US20250248393A1, “METHOD OF RELEASING A SEMIOCHEMICAL IN THE ENVIRONEMENT BY PASSIVE DIFFUSION, SYSTEM AND MEANS, ESPECIALLY STICKS, TO THIS END, AND USES THEREOF” (SIGNS, priority 2024, published 2025):

Key:
Assay type in all cases: physicochemical
[1] = F3P PCDS indirect diffusion, pheromone remaining in solution (GC/FID)
Experimental: For this study, three diffusers each containing 40 mL of product and 6 capillaries were prepared and diffused. Once a week, on Wednesdays, the amount of pheromone remaining in the solution was monitored by gas chromatography analysis coupled to a flame ionization detector (GC/FID) until no liquid remained. The percentage of pheromone was measured weekly.
Next, the percentage of pheromone was checked by external calibration using a GC/FID calibration range.
Analyses were carried out by gas chromatography coupled to a flame ionization detector. The instrument was a Shimadzu GC 2025® with an AOC20i® autosampler. Separation was performed on an Agilent DB-FFAP® column (30 m×0.25 mm×0.25 μm, stationary phase: nitroterephthalic acid-modified polyethylene glycol). The temperature of the gas chromatography oven was initially maintained at 140° C. for 2 minutes, then increased at 10° C./min to 250° C. and left at this temperature for 3 minutes. The carrier gas was helium at 1 mL/min. Analyses were performed in split mode using a split/splitless injector (temperature: 250° C., split: 1:50).
The detector used was a flame ionization detector. The detector temperature was 250° C. with an air flow rate of 400 mL/min, hydrogen 40 mL/min and nitrogen 30 mL/min.
For this purpose, a calibration range was prepared for each analysis. […]

[2] = Ratios of molecules diffused through the sticks over time
Experimental: Furthermore, as small molecules diffuse more, it happens that they lose intensity over the course of the study, so the ratios are different 24 hours after immersing the sticks in the liquid and 21 days later. Here are the ratios for each pheromone studied at the start of the study and at the end.

[3] = F3 migration along the stick (top 1 cm, GC/MS); conditions: F3, five sticks
Experimental: Three devices containing 40 mL of F3 feline facial pheromone product and five […] sticks were prepared and left on diffusion. A t=1 day, T=3 days, T=10 days, T=15 days and T=22 days after preparation of the devices, one stick was taken on each device and 1 cm of the top of each stick was cut, then extracted with acetone 1 h in an ultrasonic bath and analysed by gas chromatography coupled with mass spectrometry (GC/MS). The same analytical parameters were used for the study C with a liquid injection (injected quantity: […]) Blank analysis and matrix blank analysis were also performed.

[4] = F3 sticks device, direct diffusion, 40 mL and four sticks (SPME GC/MS); conditions: four sticks
Experimental: (§1) Three devices containing 40 mL of F3 feline facial pheromone product and four rattan sticks were prepared and left on diffusion. Every Monday, Wednesday and Friday, the diffusion of the pheromone in air was checked by analysis by gas chromatography coupled with mass spectrometer (GC/MS) and SPME (solid phase microextraction) until there is no liquid left (about 22 days).
To that purpose, the studied device was taken and placed into a closed space (in our case an aquarium turned over) containing the SPME fiber as shown on FIG. 24.
The SPME fiber was left for two hours to give the time for the molecules to adsorb on the fiber, then the fiber was injected into the GC/MS instrument for analysis.
Analysis were carried out using gas chromatography with mass spectrometer. The instrument was a GCMS QP2010SE® from Shimadzu with an AOC6000® Autosampler. The separation was performed on a ZB-5 MS® column (30 m×0.25 mm×0.25 μm, stationary phase: 95% Dimethylpolysiloxane, 5% Phenyl-Arylene) from Phenomenex. The GC oven temperature was initially held at 100° C. for 1 minute then increased at a pace of 10° C./min to 120° C. and left at this temperature for 3 minutes. Finally, the oven temperature was increased at a pace of 10° C./min to 240° C. and left at this temperature for 10 minutes. The carrier gas was helium at 1 mL/min. Analysis were performed in split mode using a split/splitless injector (Temperature: 250° C., split: 1:20). The SPME fiber was directly injected into the injector and left for 30 minutes. Separated molecules were detected using a mass spectrometer which was operated in electron impact ionization (EI) in both full scan (FS) and single ion monitoring (SIM) modes, so called FASST (Fast Automated SCAN/SIM type) mode. The interface temperature was set at 300° C. and electron impact source temperature at 250° C. The analyser was a quadrupole.
For the measurement of the relative quantity of active ingredient spreading in air, the area of the chromatographic peak corresponding to the compound was measured using Shimadzu GCMS-Solution software.

[5] = F3 block stability study in sodium stearate aqueous gel (GC-MS); conditions: after 3 months
Experimental: Aqueous sodium stearate gel is a method used by SIGNS for several of the pheromones it markets (pork, poultry, rabbit). The sodium stearate matrix is cast at high temperature (60° C.) and contains 2% pheromone. In this study, matrix samples are taken by coring, and the active ingredients are extracted by apolar solvent, using the SIGNS-validated quality control method. Extracts are analyzed by GC-MS. […] Given this observation, formula F3 cannot be used in blocks for passive diffusion, so a change of galenic formulation is necessary.

[6] = F3 direct diffusion, 120 mL and six sticks; conditions: 6 sticks
Experimental: To that purpose, three devices containing 120 mL of F3 feline facial pheromone product and six rattan sticks were prepared and left on diffusion as shown on FIG. 43.
The direct diffusion of F3 pheromone was then studied following the same protocol as the protocol of the first study shown in Section E/herein.
Each measuring day, the flasks were weighed, and the volume of the liquid was checked visually: see FIGS. 55 and 56.

[7] = F3 direct diffusion and mass loss, 40 mL and eight sticks with a refill; conditions: F3, eight sticks
Experimental: as §1, with “To that purpose, three devices” for “Three devices”, “and eight” for “and four”, “there was” for “there is”, “liquid left. Then, the solution was refilled and a second study of the diffusion of the pheromone was performed.” for “liquid left (about 22 days).”
Experimentally, the studied device was taken and placed into a closed space under identical conditions than in section E/, and for analyzing the same data.
Each measuring day, the devices were weighed and the level of the solution in the flask was controlled.

quantities found in the solution [1]: very low
ratio of molecules diffused through the sticks ([2]; F3, 24 h after immersion of sticks): 70 % (w/w)
ratio of molecules diffused through the sticks ([2]; F3, 21 days after immersion of sticks (empty tank)): 48 % (w/w)
ratio of molecules diffused through the sticks ([2]; F3P, 24 h after immersion of the sticks): 56 % (w/w)
ratio of molecules diffused through the sticks ([2]; F3P, 21 days after immersion of sticks (empty tank)): 36.5 % (w/w)
relative quantity on the top of the stick [3]: less present
direct diffusion over time [4]: gradually decreased over time
stability in the block [5]: disappeared completely
direct diffusion over time [6]: decreased over time
intensity of direct diffusion [7]: highest diffusion
Structure (SMILES): COC(=O)CCCCCC(=O)OC [dimethyl pimelate, dimethyl heptanedioate]
quantity on the top of the stick over time [3]: decreased significantly between 5 and 10 days before stabilising
